From ChEMBL document CHEMBL4392860, “Characterization of the substrate scope of an alcohol dehydrogenase commonly used as methanol dehydrogenase” (Bioorg Med Chem Lett, 2019)

Tests used:
Conditions in all cases: DSM 2334
[1] = test system: Geobacillus stearothermophilus
Description: Substrate activity at Geobacillus stearothermophilus DSM 2334 ADH expressed in Escherichia coli BL21 (DE3) assessed as Kcat in 50 mM HEPES buffer at pH 7.5 at 23 degC by MTT dye based Lineweaver-Burk plot analysis

[2] = test system: Geobacillus stearothermophilus; remark: listed apart in the source
Description: Substrate activity at Geobacillus stearothermophilus DSM 2334 ADH expressed in Escherichia coli BL21 (DE3) assessed as Km in 50 mM HEPES buffer at pH 7.5 at 23 degC by MTT dye based Lineweaver-Burk plot analysis

[3] = test system: Geobacillus stearothermophilus; remark: listed apart in the source
Description: Substrate activity at Geobacillus stearothermophilus DSM 2334 ADH expressed in Escherichia coli BL21 (DE3) assessed as Kcat/Km ratio in 50 mM HEPES buffer at pH 7.5 at 23 degC by MTT dye based Lineweaver-Burk plot analysis

| kcat [1] | Km [2] | kcat/Km [3] | Structure (SMILES) |
| --- | --- | --- | --- |
| 0.041 s⁻¹ | 23.6 mM | 1.71 M⁻¹ s⁻¹ | OCCCO |
| 0.019 s⁻¹ | 2.95 mM | 6.26 M⁻¹ s⁻¹ | CCO |
| 0.026 s⁻¹ | – | 0.046 M⁻¹ s⁻¹ | CC(C)(C)O |
| 0.019 s⁻¹ | 39.8 mM | 0.46 M⁻¹ s⁻¹ | CCCO |
| 0.076 s⁻¹ | 1.26 mM | 60.3 M⁻¹ s⁻¹ | CC(C)O |
| 0.004 s⁻¹ | 2.45 mM | 1.67 M⁻¹ s⁻¹ | CCCCO |
| 0.094 s⁻¹ | 23.8 mM | 3.96 M⁻¹ s⁻¹ | CCC(C)O (configuration not stated) |

| Structure (SMILES) | kcat [1] | Km [2] | kcat/Km [3] |
| --- | --- | --- | --- |
| CO | 0.013 s⁻¹ | – | 0.044 M⁻¹ s⁻¹ |
